Positions of bridges follow the written chain, without caps; N, C: chain ends. Non-standard residues stand in square brackets, D forms with d. Residues, ends and D or L forms follow the SMILES beside them. 2Nal = N[C@@H](Cc1ccc2ccccc2c1)C(=O)O
Experiments:
[1] = molecular target: T1, Melanocyte-stimulating hormone receptor (Homo sapiens, UniProt Q01726); test: Agonist activity at human MC1R expressed in HEK293 cells assessed as increase in intracellular cAMP accumulation; assay type: functional, cell-based
Target sequence in this assay (Q01726 whole entry): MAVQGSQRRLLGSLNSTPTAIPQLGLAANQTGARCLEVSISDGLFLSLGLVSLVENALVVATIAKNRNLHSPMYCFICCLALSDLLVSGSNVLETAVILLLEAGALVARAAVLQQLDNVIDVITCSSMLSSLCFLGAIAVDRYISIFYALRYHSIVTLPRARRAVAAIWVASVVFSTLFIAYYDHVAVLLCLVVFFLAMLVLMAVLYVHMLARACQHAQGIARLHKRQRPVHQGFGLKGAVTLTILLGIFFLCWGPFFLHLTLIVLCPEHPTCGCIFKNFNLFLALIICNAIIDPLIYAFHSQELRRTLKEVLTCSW

[2] = molecular target: T2, Melanocortin receptor 5 (Homo sapiens, UniProt P33032); test: Agonist activity at human MC5R expressed in HEK293 cells assessed as intracellular cAMP accumulation; assay type: functional, cell-based
[3] = molecular target: T3, Melanocortin receptor 4 (Homo sapiens, UniProt P32245); test: Displacement of [125I]-NDP-alpha-MSH from human MC4R expressed in HEK293 cells after 40 mins by Wallac 1470 gamma counting; assay type: cell-based
[4] = molecular target: T4, Melanocortin receptor 3 (Homo sapiens, UniProt P41968); test: Agonist activity at human MC3R expressed in HEK293 cells assessed as intracellular cAMP accumulation; assay type: functional, cell-based
[5] = molecular target: T3, Melanocortin receptor 4; test: Agonist activity at human MC4R expressed in HEK293 cells assessed as increase in intracellular cAMP level at 10 uM after 3 mins by luminescence counter relative to Ac-Nle-c[Asp-His-D-Phe-Arg-Trp-Lys]-NH2; assay type: functional, cell-based
[6] = molecular target: T3, Melanocortin receptor 4; test: Agonist activity at human MC4R expressed in HEK293 cells assessed as intracellular cAMP accumulation; assay type: functional, cell-based
[7] = molecular target: T4, Melanocortin receptor 3; test: Displacement of [125I]-NDP-alpha-MSH from human MC3R expressed in HEK293 cells at 10 uM after 40 mins by Wallac 1470 gamma counting relative to Ac-Nle-c[Asp-His-D-Phe-Arg-Trp-Lys]-NH2; assay type: cell-based
[8] = molecular target: T1, Melanocyte-stimulating hormone receptor; test: Agonist activity at human MC1R expressed in HEK293 cells assessed as increase in intracellular cAMP level at 10 uM after 3 mins by luminescence counter relative to Ac-Nle-c[Asp-His-D-Phe-Arg-Trp-Lys]-NH2; assay type: functional, cell-based
Target sequence in this assay (Q01726 whole entry, looked up): as the sequence (Q01726 whole entry) above

[9] = molecular target: T1, Melanocyte-stimulating hormone receptor; test: Displacement of [125I]-NDP-alpha-MSH from human MC1R expressed in HEK293 cells at 10 uM after 40 mins by Wallac 1470 gamma counting relative to Ac-Nle-c[Asp-His-D-Phe-Arg-Trp-Lys]-NH2; assay type: cell-based
Target sequence in this assay (Q01726 whole entry, looked up): as the sequence (Q01726 whole entry) above

[10] = molecular target: T1, Melanocyte-stimulating hormone receptor; test: Displacement of [125I]-NDP-alpha-MSH from human MC1R expressed in HEK293 cells after 40 mins by Wallac 1470 gamma counting; assay type: cell-based
Target sequence in this assay (Q01726 whole entry): as above

[11] = molecular target: T3, Melanocortin receptor 4; test: Displacement of [125I]-NDP-alpha-MSH from human MC4R expressed in HEK293 cells at 10 uM after 40 mins by Wallac 1470 gamma counting relative to Ac-Nle-c[Asp-His-D-Phe-Arg-Trp-Lys]-NH2; assay type: cell-based
[12] = molecular target: T4, Melanocortin receptor 3; test: Displacement of [125I]-NDP-alpha-MSH from human MC3R expressed in HEK293 cells after 40 mins by Wallac 1470 gamma counting; assay type: cell-based
[13] = molecular target: T4, Melanocortin receptor 3; test: Agonist activity at human MC3R expressed in HEK293 cells assessed as increase in intracellular cAMP level at 10 uM after 3 mins by luminescence counter relative to Ac-Nle-c[Asp-His-D-Phe-Arg-Trp-Lys]-NH2; assay type: functional, cell-based
[14] = molecular target: T2, Melanocortin receptor 5; test: Displacement of [125I]-NDP-alpha-MSH from human MC5R expressed in HEK293 cells at 10 uM after 40 mins by Wallac 1470 gamma counting relative to Ac-Nle-c[Asp-His-D-Phe-Arg-Trp-Lys]-NH2; assay type: cell-based
[15] = molecular target: T2, Melanocortin receptor 5; test: Displacement of [125I]-NDP-alpha-MSH from human MC5R expressed in HEK293 cells after 40 mins by Wallac 1470 gamma counting; assay type: cell-based
[16] = molecular target: T2, Melanocortin receptor 5; test: Agonist activity at human MC5R expressed in HEK293 cells assessed as increase in intracellular cAMP level at 10 uM after 3 mins by luminescence counter relative to Ac-Nle-c[Asp-His-D-Phe-Arg-Trp-Lys]-NH2; assay type: functional, cell-based

T2 sequence (P33032 whole entry): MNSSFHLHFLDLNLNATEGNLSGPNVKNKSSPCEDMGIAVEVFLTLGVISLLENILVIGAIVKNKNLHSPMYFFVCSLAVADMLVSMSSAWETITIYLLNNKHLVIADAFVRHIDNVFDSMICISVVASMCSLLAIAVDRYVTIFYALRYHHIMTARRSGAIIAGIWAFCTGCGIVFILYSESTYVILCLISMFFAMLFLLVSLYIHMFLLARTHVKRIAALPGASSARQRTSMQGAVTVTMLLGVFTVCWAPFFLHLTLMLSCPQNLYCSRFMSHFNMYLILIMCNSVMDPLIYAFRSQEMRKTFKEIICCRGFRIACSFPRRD
T4 sequence (P41968 whole entry): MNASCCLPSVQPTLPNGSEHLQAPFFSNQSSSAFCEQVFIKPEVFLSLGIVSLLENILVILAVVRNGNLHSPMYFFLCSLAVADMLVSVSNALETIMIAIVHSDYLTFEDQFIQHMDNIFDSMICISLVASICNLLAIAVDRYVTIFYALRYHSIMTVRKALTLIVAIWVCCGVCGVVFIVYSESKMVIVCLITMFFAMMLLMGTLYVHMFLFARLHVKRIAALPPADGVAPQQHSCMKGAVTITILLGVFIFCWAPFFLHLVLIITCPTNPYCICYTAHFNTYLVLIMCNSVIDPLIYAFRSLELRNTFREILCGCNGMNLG
T3 sequence (P32245 whole entry): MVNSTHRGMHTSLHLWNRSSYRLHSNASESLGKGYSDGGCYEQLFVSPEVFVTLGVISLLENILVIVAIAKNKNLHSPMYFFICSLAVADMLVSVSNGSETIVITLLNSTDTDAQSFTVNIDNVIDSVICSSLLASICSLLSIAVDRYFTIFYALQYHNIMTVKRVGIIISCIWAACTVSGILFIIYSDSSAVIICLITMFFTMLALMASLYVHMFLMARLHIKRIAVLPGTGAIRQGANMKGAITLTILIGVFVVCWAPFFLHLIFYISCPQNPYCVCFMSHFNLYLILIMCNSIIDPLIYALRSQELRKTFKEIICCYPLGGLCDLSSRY

| EC50 [1] | EC50 [2] | IC50 [3] | EC50 [4] | Activity [5] [%] | EC50 [6] | Activity [7] [%] | Activity [8] [%] | Activity [9] [%] | IC50 [10] | Activity [11] [%] | IC50 [12] | Activity [13] [%] | Activity [14] [%] | IC50 [15] | Activity [16] [%] | Compound |
| --- | --- | --- | --- | --- | --- | --- | --- | --- | --- | --- | --- | --- | --- | --- | --- | --- |
| Not Active | Not Active | Not Active | Not Active | 0 | Not Active | 0 | 0 | 0 | Not Active | 0 | Not Active | 0 | 0 | Not Active | 0 | CC(=O)N[C@H]1CC(=O)NCCCC[C@@H](C(N)=O)NC(=O)[C@@H](CC(N)=O)NC(=O)[C@H](Cc2ccccc2)NC(=O)[C@H](Cc2c[nH]c3ccccc23)NC(=O)[C@H](CCCNC(=N)N)NC1=O (Ac-DRWF[dN]K-NH2; lactam 1-6) |
| Not Active | Not Active | Not Active | Not Active | 0 | Not Active | 0 | 0 | – | Not Active | – | Not Active | – | – | Not Active | 0 | CC(=O)N[C@H]1CC(=O)NCCCC[C@@H](C(N)=O)NC(=O)[C@@H](CCC(N)=O)NC(=O)[C@H](Cc2ccc3ccccc3c2)NC(=O)[C@H](Cc2c[nH]c3ccccc23)NC(=O)[C@H](CCCNC(=N)N)NC1=O (Ac-DRW[2Nal][dQ]K-NH2; lactam 1-6) |
| Not Active | Not Active | Not Active | Not Active | 0 | Not Active | – | – | – | – | – | Not Active | 0 | – | Not Active | 0 | C[C@@H]1NC(=O)[C@@H](Cc2cnc[nH]2)NC(=O)[C@H](Cc2ccccc2)NC(=O)[C@H](Cc2c[nH]c3ccccc23)NC(=O)[C@H](CCCNC(=N)N)NC(=O)CC[C@@H](C(N)=O)NC(=O)[C@H](Cc2ccccc2)NC1=O (RWF[dH]AFE-NH2; lactam N-7) |
| Not Active | Not Active | Not Active | Not Active | – | Not Active | 0 | 0 | – | Not Active | 0 | Not Active | – | – | Not Active | 0 | C[C@@H]1NC(=O)[C@@H](CCC(N)=O)NC(=O)[C@H](Cc2ccccc2)NC(=O)[C@H](Cc2c[nH]c3ccccc23)NC(=O)[C@H](CCCNC(=N)N)NC(=O)CC[C@@H](C(N)=O)NC(=O)[C@H](Cc2ccccc2)NC1=O (RWF[dQ]AFE-NH2; lactam N-7) |
| Not Active | Not Active | Not Active | Not Active | – | Not Active | – | 0 | – | Not Active | 0 | Not Active | 0 | – | Not Active | 0 | C[C@@H]1NC(=O)[C@H](Cc2cnc[nH]2)NC(=O)[C@@H](Cc2ccccc2)NC(=O)[C@H](Cc2c[nH]c3ccccc23)NC(=O)[C@H](CCCNC(=N)N)NC(=O)CC[C@@H](C(N)=O)NC(=O)[C@H](Cc2ccccc2)NC1=O (RW[dF]HAFE-NH2; lactam N-7) |
| Not Active | Not Active | Not Active | Not Active | 0 | Not Active | – | – | 0 | Not Active | – | Not Active | 0 | – | Not Active | 0 | C[C@@H]1NC(=O)[C@H](CC(N)=O)NC(=O)[C@@H](Cc2ccccc2)NC(=O)[C@H](Cc2c[nH]c3ccccc23)NC(=O)[C@H](CCCNC(=N)N)NC(=O)CC[C@@H](C(N)=O)NC(=O)[C@H](Cc2ccccc2)NC1=O (RW[dF]NAFE-NH2; lactam N-7) |

The next lines start with the molecule.

| Compound | EC50 [1] | EC50 [2] | IC50 [3] | EC50 [4] | Activity [5] [%] | EC50 [6] | Activity [7] [%] | Activity [8] [%] | Activity [9] [%] | IC50 [10] | Activity [11] [%] | IC50 [12] | Activity [13] [%] | Activity [14] [%] | IC50 [15] | Activity [16] [%] |
| --- | --- | --- | --- | --- | --- | --- | --- | --- | --- | --- | --- | --- | --- | --- | --- | --- |
| C[C@@H]1NC(=O)[C@@H](CCCNC(=N)N)NC(=O)[C@H](Cc2ccccc2)NC(=O)[C@H](Cc2c[nH]c3ccccc23)NC(=O)[C@H](CCCNC(=N)N)NC(=O)CC[C@@H](C(N)=O)NC(=O)[C@H](Cc2ccccc2)NC1=O | Not Active | Not Active | Not Active | Not Active | 0 | Not Active | 30 | – | – | – | – | – | – | – | – | – |
| C[C@@H]1NC(=O)[C@H](CCCNC(=N)N)NC(=O)[C@@H](Cc2ccccc2)NC(=O)[C@H](Cc2c[nH]c3ccccc23)NC(=O)[C@H](CCCNC(=N)N)NC(=O)CC[C@@H](C(N)=O)NC(=O)[C@H](Cc2ccccc2)NC1=O | – | Not Active | – | Not Active | – | Not Active | – | – | – | – | – | – | – | – | – | – |
| CC(=O)N[C@H]1CC(=O)NCCCC[C@@H](C(N)=O)NC(=O)[C@@H](CC(N)=O)NC(=O)[C@H](Cc2ccc3ccccc3c2)NC(=O)[C@H](Cc2c[nH]c3ccccc23)NC(=O)[C@H](CCCNC(=N)N)NC1=O (Ac-DRW[2Nal][dN]K-NH2; lactam 1-6) | Not Active | Not Active | Not Active | Not Active | 0 | Not Active | 0 | 0 | – | Not Active | – | Not Active | – | – | Not Active | 0 |
| C[C@@H]1NC(=O)[C@H](CC(N)=O)NC(=O)[C@H](Cc2ccccc2)NC(=O)[C@H](Cc2c[nH]c3ccccc23)NC(=O)[C@H](CCCNC(=N)N)NC(=O)CC[C@@H](C(N)=O)NC(=O)[C@H](Cc2ccccc2)NC1=O (RWFNAFE-NH2; lactam N-7) | Not Active | Not Active | Not Active | Not Active | 0 | Not Active | – | – | 0 | Not Active | – | Not Active | 0 | – | Not Active | 0 |
| C[C@@H]1NC(=O)[C@@H](CC(N)=O)NC(=O)[C@H](Cc2ccccc2)NC(=O)[C@H](Cc2c[nH]c3ccccc23)NC(=O)[C@H](CCCNC(=N)N)NC(=O)CC[C@@H](C(N)=O)NC(=O)[C@H](Cc2ccccc2)NC1=O (RWF[dN]AFE-NH2; lactam N-7) | Not Active | Not Active | Not Active | Not Active | 0 | Not Active | 0 | – | 0 | Not Active | – | Not Active | – | – | Not Active | 0 |
| C[C@@H]1NC(=O)[C@@H](CC(N)=O)NC(=O)[C@H](Cc2ccc3ccccc3c2)NC(=O)[C@H](Cc2c[nH]c3ccccc23)NC(=O)[C@H](CCCNC(=N)N)NC(=O)CC[C@@H](C(N)=O)NC(=O)[C@H](Cc2ccccc2)NC1=O (RW[2Nal][dN]AFE-NH2; lactam N-7) | Not Active | Not Active | Not Active | Not Active | 0 | Not Active | 0 | 0 | – | Not Active | – | Not Active | – | 0 | Not Active | – |
| C[C@@H]1NC(=O)[C@@H](CCC(N)=O)NC(=O)[C@H](Cc2ccc3ccccc3c2)NC(=O)[C@H](Cc2c[nH]c3ccccc23)NC(=O)[C@H](CCCNC(=N)N)NC(=O)CC[C@@H](C(N)=O)NC(=O)[C@H](Cc2ccccc2)NC1=O (RW[2Nal][dQ]AFE-NH2; lactam N-7) | Not Active | Not Active | Not Active | Not Active | 0 | Not Active | – | – | 0 | Not Active | – | Not Active | 0 | – | Not Active | 0 |

Source: ChEMBL document CHEMBL1773033, “Cyclic lactam hybrid α-MSH/Agouti-related protein (AGRP) analogues with nanomolar range binding affinities at the human melanocortin receptors” (Bioorg Med Chem Lett, 2011)
